Laboratory results reported in paper PMC11470957, “Principles of paralog-specific targeted protein degradation engaging the C-degron E3 KLHDC2” (Nature Communications, 2024).
Like-named read-outs stand apart in the source and are kept apart here.

Molecular target: BRD3 (Homo sapiens, UniProt Q15059)
Assay: Western blot of BRD3 levels after cellular dosing
Conditions: for DC50: read-out: BRD3 DC50
[1] = U2OS, read-out: BRD3 level, Western blot quantification (DMSO = 100), Fig S6d, U2OS KO/rescue Dose Response
[2] = read-out: BRD3 level, Western blot quantification (DMSO = 100), Fig S6e, PC3 KO/rescue Dose Response

BRD3, sequence (Q15059 whole entry): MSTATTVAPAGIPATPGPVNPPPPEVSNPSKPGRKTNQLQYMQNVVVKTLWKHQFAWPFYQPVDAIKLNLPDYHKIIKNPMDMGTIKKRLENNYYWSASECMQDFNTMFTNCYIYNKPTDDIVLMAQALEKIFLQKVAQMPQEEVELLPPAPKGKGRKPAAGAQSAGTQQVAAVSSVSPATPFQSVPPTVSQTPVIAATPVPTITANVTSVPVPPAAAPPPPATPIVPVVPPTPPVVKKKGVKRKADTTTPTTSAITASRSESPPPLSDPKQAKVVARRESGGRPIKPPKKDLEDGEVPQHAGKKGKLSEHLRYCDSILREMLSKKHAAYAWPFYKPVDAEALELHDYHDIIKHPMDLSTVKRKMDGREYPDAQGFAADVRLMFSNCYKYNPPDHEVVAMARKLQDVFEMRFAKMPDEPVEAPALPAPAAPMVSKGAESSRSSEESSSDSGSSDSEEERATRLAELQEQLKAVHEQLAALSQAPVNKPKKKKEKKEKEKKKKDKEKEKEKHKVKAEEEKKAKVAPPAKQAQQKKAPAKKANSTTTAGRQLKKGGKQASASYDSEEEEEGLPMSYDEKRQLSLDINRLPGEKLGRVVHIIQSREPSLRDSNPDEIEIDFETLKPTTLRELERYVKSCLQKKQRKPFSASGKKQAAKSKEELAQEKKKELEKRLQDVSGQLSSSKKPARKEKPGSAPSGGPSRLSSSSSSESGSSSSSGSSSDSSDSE

Q: How did the “selectivity of BRD3 over BRD4 degradation” value (SKBR3, 24 hr) turn out when COC(=O)CNC(=O)Cc1csc(-c2ccc3cccc(OCCN4CCN(C(=O)C[C@@H]5N=C(c6ccc(Cl)cc6)c6c(sc(C)c6C)-n6c(C)nnc65)CC4)c3c2)n1 [SJ46420] was run?
A: ~ 1.5 fold

Q: And the “reduction of the levels of BRD3” value (SKBR3, within two hours)?
A: ~ 70%

Q: And the “BRD3 Dmax” value (U2OS KO/Rescue, 24 h dose)?
A: ~ 100%

Q: What about the “selectivity for BRD3 over BRD2 and BRD4 (DC50)” value (U2OS KO/rescue) of the same compound?
A: ~ 2.5 fold

Q: And the “time of maximal degradation” value (U2OS cells)?
A: 8 h

Q: And the remaining activity at 5 µM (U2OS, 2 h, read-out: BRD3 level relative to DMSO (100%), U2OS, 5µM, 2hr, Fig S6h)?
A: 93 ± 9.8%

Q: And the remaining activity at 5 µM (U2OS, 2 h, read-out: BRD3 level, Western blot quantification (DMSO = 100), Fig S6h, U2OS Time course, 5uM, 2hr)?
A: 91.4%

Q: And the remaining activity at 5 µM (U2OS, 4 h, read-out: BRD3 level relative to DMSO (100%), U2OS, 5µM, 4hr, Fig S6h)?
A: 68 ± 9.8%

Q: And the remaining activity at 5 µM (U2OS, 4 h, read-out: BRD3 level, Western blot quantification (DMSO = 100), Fig S6h, U2OS Time course, 5uM, 4hr)?
A: 71.3%

Q: And the remaining activity at 5 µM (U2OS, 8 h, read-out: BRD3 level relative to DMSO (100%), U2OS, 5µM, 8hr, Fig S6i)?
A: 41 ± 5.4%

Q: And the remaining activity at 5 µM (U2OS, 8 h, read-out: BRD3 level relative to DMSO (100%), U2OS, 5µM, 8hr, Fig S6h)?
A: 28 ± 9.8%

Q: And the remaining activity at 5 µM (U2OS, 8 h, read-out: BRD3 level, Western blot quantification (DMSO = 100), Fig S6h, U2OS Time course, 5uM, 8hr)?
A: 31.8%

Q: What about the remaining activity at 5 µM (U2OS, 24 h, read-out: BRD3 level relative to DMSO (100%), U2OS DC2KO (KLHDC2 knockout), 5µM, 24 h, Fig 6b) of the same compound?
A: 100 ± 6.8%

Q: What about the remaining activity at 0.16 µM (U2OS, 24 h, read-out: BRD3 level relative to DMSO (100%), U2OS KO/Rescue, 0.16µM, 24 h, Fig S6d) of the same compound?
A: 85 ± 13%

Q: What about the remaining activity at 0.31 µM (U2OS, 24 h, read-out: BRD3 level relative to DMSO (100%), U2OS KO/Rescue, 0.31µM, 24 h, Fig S6d) of the same compound?
A: 65 ± 14%

Q: And the remaining activity at 0.63 µM (U2OS, 24 h, read-out: BRD3 level relative to DMSO (100%), U2OS KO/Rescue, 0.63µM, 24 h, Fig S6d)?
A: 39 ± 8.5%

Q: What about the remaining activity at 1 µM (U2OS, 24 h, read-out: BRD3 level relative to DMSO (100%), U2OS KO/Rescue, 1µM + co-dosing 1µM MLN4924, 24 h, Fig 6d) of the same compound?
A: 120 ± 1.5%

Q: And the remaining activity at 1 µM (U2OS, 24 h, read-out: BRD3 level relative to DMSO (100%), U2OS KO/Rescue, 1µM, 24 h, Fig 6c)?
A: 45 ± 3.6%

Q: What about the remaining activity at 1 µM (U2OS, 24 h, read-out: BRD3 level relative to DMSO (100%), U2OS KO/Rescue, 1µM, 24 h, Fig 6d) of the same compound?
A: 25 ± 8.2%

Q: What about the remaining activity at 1.3 µM (U2OS, 24 h, read-out: BRD3 level relative to DMSO (100%), U2OS KO/Rescue, 1.3µM, 24 h, Fig S6d) of the same compound?
A: 12 ± 1.8%

Q: And the remaining activity at 2.5 µM (U2OS, 24 h, read-out: BRD3 level relative to DMSO (100%), U2OS KO/Rescue, 2.5µM, 24 h, Fig S6d)?
A: 0.77 ± 0.16%

Q: And the remaining activity at 5 µM (U2OS, 24 h, read-out: BRD3 level relative to DMSO (100%), U2OS KO/Rescue, 5µM, 24 h, Fig S6d)?
A: 0.34 ± 0.11%

Q: And the remaining activity at 5 µM (U2OS, 24 h, read-out: BRD3 level relative to DMSO (100%), U2OS, 5µM, 24 h, Fig 6b)?
A: 30.9 ± 4.1%

Q: And the remaining activity at 5 µM (U2OS, 24 h, read-out: BRD3 level relative to DMSO (100%), U2OS, 5µM, 24hr, Fig S6h)?
A: 41 ± 9.8%

Q: What about the remaining activity at 5 µM (U2OS, 24 h, read-out: BRD3 level, Western blot quantification (DMSO = 100), Fig S6h, U2OS Time course, 5uM, 24hr) of the same compound?
A: 43.5%

Q: And the “selectivity of BRD3 over BRD4 degradation” value (U2OS, 24 hr)?
A: ~ 1.4 fold

Q: What about the remaining activity at 1.59176 µM (U2OS, read-out: BRD3 (DMSO = 100), U2OS KO/Rescue cells, Log SJ46420 (uM) 1.59176, Rep1, Rep2) of the same compound?
A: 95%

Q: And the remaining activity at 2.49485 µM (U2OS, read-out: BRD3 (DMSO = 100), U2OS KO/Rescue cells, Log SJ46420 (uM) 2.49485, Rep1, Rep2)?
A: 47.6%

Q: What about the remaining activity at 2.79588 µM (U2OS, read-out: BRD3 (DMSO = 100), U2OS KO/Rescue cells, Log SJ46420 (uM) 2.79588, Rep1, Rep2) of the same compound?
A: 11.4%

Q: And the remaining activity at 3.09691 µM (U2OS, read-out: BRD3 (DMSO = 100), U2OS KO/Rescue cells, Log SJ46420 (uM) 3.09691, Rep1, Rep2)?
A: 0.66%

Q: And the remaining activity at 3.39794 µM (U2OS, read-out: BRD3 (DMSO = 100), U2OS KO/Rescue cells, Log SJ46420 (uM) 3.39794, Rep1, Rep2)?
A: 0.34%

Q: What about the remaining activity at 3.69897 µM (U2OS, read-out: BRD3 (DMSO = 100), U2OS KO/Rescue cells, Log SJ46420 (uM) 3.69897, Rep1, Rep2) of the same compound?
A: 0.161%

Q: What about the Dmax (U2OS, read-out: BRD3 Dmax, U2OS KO/Rescue, 24 h dose) of the same compound?
A: 99.9%

Q: What about the remaining activity at 5 µM (U2OS, read-out: BRD3 level, Western blot quantification (DMSO = 100), Fig 6b, U2OS, 5 uM) of the same compound?
A: 33.9%

Q: And the remaining activity at 5 µM (U2OS, read-out: BRD3 level, Western blot quantification (DMSO = 100), Fig S6i, U2OS, 5uM)?
A: 52.9%

Q: And the remaining activity at 0.156 µM (U2OS, read-out: BRD3 level, Western blot quantification (DMSO = 100), Fig S6d, U2OS KO/rescue Dose Response, 0.156 uM)?
A: 108%

Q: What about the remaining activity at 0.313 µM (U2OS, read-out: BRD3 level, Western blot quantification (DMSO = 100), Fig S6d, U2OS KO/rescue Dose Response, 0.313 uM) of the same compound?
A: 70.7%

Q: What about the remaining activity at 0.625 µM [1] of the same compound?
A: 29.3%

Q: What about the remaining activity at 1.25 µM [1] of the same compound?
A: 11.3%

Q: And the remaining activity at 2.5 µM (U2OS, read-out: BRD3 level, Western blot quantification (DMSO = 100), Fig S6d, U2OS KO/rescue Dose Response, 2.5 uM)?
A: 5.44%

Q: What about the stability in cells (from time-course of BRD3 levels between 8 h and 24 h) of the same compound?
A: relatively unstable

Q: What about the DC50 (22Rv1, 24 h dose) of the same compound?
A: 458 nM

Q: And the DC50 (PC3, 24 h dose)?
A: 487 nM

Q: What about the Dmax (read-out: BRD3 Dmax, PC3, 24 h dose) of the same compound?
A: 99.9%

Q: And the remaining activity at 5 µM (read-out: BRD3 level, Western blot quantification (DMSO = 100), Fig 6b, KO/Rescue, 5 uM)?
A: 105%

Q: And the remaining activity at 1 µM (read-out: BRD3 level, Western blot quantification (DMSO = 100), Fig 6c, 1 uM)?
A: 43.9%

Q: What about the remaining activity at 1 µM (read-out: BRD3 level, Western blot quantification (DMSO = 100), Fig 6d, 1 uM) of the same compound?
A: 19%

Q: What about the remaining activity at 1 µM (read-out: BRD3 level, Western blot quantification (DMSO = 100), Fig 6d, 1uM together with 1uM MLN4924) of the same compound?
A: 120%

Q: And the remaining activity at 0.625 µM [2]?
A: 47.6%

Q: And the remaining activity at 1.25 µM [2]?
A: 11.4%

Q: And the remaining activity at 2.5 µM (read-out: BRD3 level, Western blot quantification (DMSO = 100), Fig S6e, PC3 KO/rescue Dose Response, 2.5 uM)?
A: 0.66%

Q: And the remaining activity at 5 µM (read-out: BRD3 level, Western blot quantification (DMSO = 100), Fig S6e, PC3 KO/rescue Dose Response, 5 uM)?
A: 0.34%

Q: And the remaining activity at 10 µM (read-out: BRD3 level, Western blot quantification (DMSO = 100), Fig S6e, PC3 KO/rescue Dose Response, 10uM)?
A: 0.161%

Q: What about the “BRD degradation activity in U2OS cells” value (wild-type U2OS, 24 h dose, Fig 6b) of the same compound?
A: efficiently and selectively targeted BRD3 for degradation
